This is an account of results in PubChem BioAssay AID588782 (Southern Research Specialized Biocontainment Screening …, 2011).

The experiment relates to PC3 cells, HSV G47-delta CPE, CellTiter-Glo, 96 h. Nature of the experiment: augmentation of HSV G47-delta CPE in PC3 cells – cell-based, CellTiter-Glo, secondary, confirmation (AID 588782). The settings on record: for outcome: at 10 µM; for CC50: measured here: PC3 cytotoxicity. (Cellular ATP, detected with luciferase, serves as a proxy for viable cell number.)

By CC50 is commonly meant the concentration giving 50% cytotoxicity.

The structures appear in SMILES notation. Active and inactive are the calls of the source.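 How the source made its calls: active means virus-caused cell damage raised over twofold versus untreated cells in three repeats, without toxicity at overlapping doses; inactive means the rest.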

For the molecule `COc1cc(CN2CCCN(Cc3cc(OC)c(OC)c(OC)c3)CC2)cc(OC)c1OC`, the result was inactive and the CC50 was above 100 µM.

With `O=C(CN1CCCN(CC(=O)CN2C(=O)c3ccccc3C2=O)CC1)CN1C(=O)c2ccccc2C1=O`, the result was inactive and the CC50 was above 100 µM.

On to `COc1cccc(C(=O)NCCCN2CCN(CCCNC(=O)c3cccc(OC)c3)CC2)c1`, for which the result was inactive and the CC50 is above 100 µM.

Regarding `O=C(OCCCN1CCCN(CCCOC(=O)c2ccccc2)CC1)c1ccccc1`, the outcome was inactive and the CC50 is above 100 µM.

Regarding `COc1ccc(N2C(=O)CC(N3CCCN(C4CC(=O)N(c5ccc(OC)cc5)C4=O)CC3)C2=O)cc1` (stereo not given), the result was inactive and the CC50 was above 100 µM.

In the case of `CNCCN(C)CCOC(=O)c1cc(OC)c(OC)c(OC)c1`, the result was inactive and the CC50 was above 100 µM.

As for `COc1ccc(C(=O)NCCCN2CCCN(C)CC2)cc1`, the outcome was inactive and the CC50 is above 100 µM.

As for `CNCCN(C)CCOC(=O)c1cc(OC)cc(OC)c1`, the result was inactive and the CC50 is above 100 µM.

`CNCCN(C)CCCOC(=O)c1ccc(F)cc1`: the result was inactive and the CC50 is above 100 µM.

As to `COc1ccc(C(=O)OCCCN2CCN(CCCOC(=O)c3ccc(OC)cc3)CC2)cc1`, the outcome was inactive and the CC50 is above 100 µM.

As to `COc1cc(C(=O)OCCN2CCN(CCOC(=O)c3cc(OC)c(OC)c(OC)c3)CC2)cc(OC)c1OC`, the outcome was inactive and the CC50 was above 100 µM.

Turning to `COc1cc(C(=O)OCCCN2CCCNCC2)cc(OC)c1OC`, the outcome was inactive and the CC50 is above 100 µM.

Turning to `COc1cc(C(=O)OCCCN2CCCN(C)CC2)cc(OC)c1OC`, the outcome was inactive and the CC50 was above 100 µM.

`COc1cc(C(=O)OCCCN2CCCN(C(=O)OC(C)(C)C)CC2)cc(OC)c1OC`: the result was inactive and the CC50 is above 100 µM.

Regarding `COc1cc(OC)cc(C(=O)OCCN2CCCN(C)CC2)c1`, the outcome was inactive and the half-maximal cytotoxic concentration (CC50) is above 100 µM.

Regarding `COc1cc(C(=O)OCCCN2CCN(C)CC2)cc(OC)c1OC`, the result was inactive and the CC50 is above 100 µM.

In the case of `O=C(OCCCN1CCCN(CCCOC(=O)c2ccc(F)cc2)CC1)c1ccc(F)cc1`, the result was inactive and the CC50 was 66.9 µM.

In the case of `COc1cc(C(=O)OCCN2CCCC2)cc(OC)c1OC`, the outcome was inactive and the CC50 was above 100 µM.

For `COc1cc(OC)cc(C(=O)OCCN2CCOCC2)c1`, the result was inactive and the cytotoxic concentration (CC50) is above 100 µM.

Turning to `COc1ccc(C(=O)OCCN2CCCN(Cc3ccccc3)CC2)cc1`, the result was inactive and the CC50 is above 100 µM.
